Reference: ChEMBL document CHEMBL1955759, “Influence of susceptibility to hydrolysis and hydrophobicity of arylsemicarbazones on their anti-nociceptive and anti-inflammatory activities” (Eur J Med Chem, 2012)
The source made the active and inactive calls. No cut-off for these calls is given here.

Key:
[1] = n-Octanol-water distribution coefficient, log K of the compound by shake flask method; type: physicochemical; details: read-out: log KOW
Mus musculus [2] = test: Antinociceptive activity in Swiss mouse assessed as inhibition of zymosan A-induced writhing response at 0.31 mmol/kg, ip administered 30 mins prior to zymosan A-challenge; type: functional, organism-based
Mus musculus [3] = test: Antinociceptive activity in Swiss mouse assessed as inhibition of zymosan A-induced writhing response at 0.62 mmol/kg, ip administered 30 mins prior to zymosan A-challenge; type: functional, organism-based
Mus musculus [4] = test: Antinociceptive activity in Swiss mouse assessed inhibition of formaldehyde-induced paw licking at 0.31 mmol/kg, ip administered 30 mins prior to formaldehyde-challenge measured from 15 to 30 mins; type: functional, organism-based
Mus musculus [5] = test: Antinociceptive activity in Swiss mouse assessed as inhibition of zymosan A-induced writhing response at 0.16 mmol/kg, ip administered 30 mins prior to zymosan A-challenge; type: functional, organism-based
Mus musculus [6] = test: Antinociceptive activity in Swiss mouse assessed inhibition of formaldehyde-induced paw licking at 0.31 mmol/kg, ip administered 30 mins prior to formaldehyde-challenge measured up to 5 mins; type: functional, organism-based
Rattus norvegicus [7] = test: Antiinflammatory activity in Wistar rat assessed as inhibition of carrageenan-induced paw edema at 0.31 mmol/kg, ip administered 30 mins prior to carrageenan-challenge measured up to 6 hrs; type: functional, organism-based
Rattus norvegicus [8] = test: Antiinflammatory activity in Wistar rat assessed as inhibition of carrageenan-induced paw edema at 0.62 mmol/kg, ip administered 30 mins prior to carrageenan-challenge measured up to 6 hrs; type: functional, organism-based
Mus musculus [9] = test: Antinociceptive activity in ip dosed Swiss mouse assessed as inhibition of zymosan A-induced writhing response administered 30 mins prior to zymosan A-challenge; type: functional
Mus musculus [10] = test: Antinociceptive activity in Swiss mouse assessed inhibition of formaldehyde-induced paw licking at 0.62 mmol/kg, ip administered 30 mins prior to formaldehyde-challenge measured from 15 to 30 mins; type: functional, organism-based
Rattus norvegicus [11] = test: Antiinflammatory activity in Wistar rat assessed as inhibition of carrageenan-induced paw edema at 0.31 mmol/kg, ip administered 30 mins prior to carrageenan-challenge measured at 2 hrs; type: functional, organism-based
Rattus norvegicus [12] = test: Antiinflammatory activity in Wistar rat assessed as inhibition of carrageenan-induced paw edema at 0.62 mmol/kg, ip administered 30 mins prior to carrageenan-challenge measured at 2 hrs; type: functional, organism-based
Mus musculus [13] = test: Neurotoxicity in Swiss mouse assessed as motor coordination by measuring change in time spent on rotating rod at 0.62 mmol/kg, ip administered 30 mins prior to testing; type: toxicity, organism-based; details: in vivo, 0.5 h
Mus musculus [14] = test: Antinociceptive activity in Swiss mouse assessed inhibition of formaldehyde-induced paw licking at 0.62 mmol/kg, ip administered 30 mins prior to formaldehyde-challenge measured up to 5 mins; type: functional, organism-based

| Compound | logP [1] | inhibition (Mus musculus [2]) | inhibition (Mus musculus [3]) | inhibition (Mus musculus [4]) | inhibition (Mus musculus [6]) | inhibition (Rattus norvegicus [7]) | inhibition (Rattus norvegicus [8]) | other results |
| --- | --- | --- | --- | --- | --- | --- | --- | --- |
| NC(=O)N/N=C/c1cccc(O)c1 | 0.43 | inactive | inactive |  |  |  |  |  |
| O=Cc1ccccc1 |  |  |  | inactive |  |  |  |  |
| NC(=O)N/N=C/c1ccccc1 | 0.91 |  |  | Active | Active | inactive | inactive | inhibition (Mus musculus [5]): inactive |
| NC(=O)N/N=C/c1ccccc1O | 0.85 | Active | Active |  |  | inactive | inactive | MED (Mus musculus [9]): 0.16 mmol/kg; inhibition (Mus musculus [10]): Active; inhibition (Rattus norvegicus [11]): Active; inhibition (Rattus norvegicus [12]): Active; Activity (Mus musculus [13]): Non-toxic; inhibition (Mus musculus [14]): inactive |
| NC(=O)N/N=C/c1ccc(O)cc1 | 0.31 | inactive | inactive |  |  |  |  |  |
| NNC(N)=O |  |  |  | Active | inactive | Active | Active |  |
